Usually IC50 stands for the concentration that inhibits the measured activity by half. In general, EC50 refers to the concentration that produces a half-maximal response. As usually defined, the AC50 is the concentration at which the activity in the assay is half-maximal.

The source made the active and inactive calls.

Here are results for 5 compounds from ChEMBL document CHEMBL1201862, “PubChem BioAssay data set” (2004).

In experiment [1] the target is T1, Tyrosine-protein phosphatase non-receptor type 7 (Homo sapiens, UniProt P35236).
T1 sequence (P35236 whole entry): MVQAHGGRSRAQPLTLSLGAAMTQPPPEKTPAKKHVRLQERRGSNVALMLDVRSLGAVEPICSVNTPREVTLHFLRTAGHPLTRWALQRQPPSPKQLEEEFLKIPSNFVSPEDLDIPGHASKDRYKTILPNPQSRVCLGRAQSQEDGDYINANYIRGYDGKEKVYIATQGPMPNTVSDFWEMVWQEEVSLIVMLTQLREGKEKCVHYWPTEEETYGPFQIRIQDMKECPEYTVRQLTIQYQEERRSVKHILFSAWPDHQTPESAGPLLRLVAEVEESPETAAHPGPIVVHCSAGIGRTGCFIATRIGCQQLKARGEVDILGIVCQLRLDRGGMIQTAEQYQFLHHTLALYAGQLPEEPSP
Kind of experiment: HePTP (PTPN7) phosphatase inhibitor potency, SAR follow-up, biochemical, set 2 (AID 449736). Type of experiment: functional.

For experiment [2], the system named is HEK293. Kind of experiment: optical interference in Abeta FP readout, dose response, artefact control for IDE activator project, biochemical, fluorescence polarization (AID 588442). The following applies: Homo sapiens. The experiment is classed as functional, cell-based. (In fluorescence polarisation assays a small probe gives low polarisation when free and higher when bound to something large.)

Experiment [3] in a line: ZM109 Env clade C HIV-1 fusion inhibitors, dose response, HeLa effector, CEM target cells, luciferase, cherry-pick (AID 652058). The experiment is classed as functional, cell-based.
A short description of experiment [4]: cytotoxicity toward NIH3T3 fibroblasts, dose response, counter-screen, cell-based, ATP luminescence, mouse fibroblasts (AID 2010).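 Further: cells exposed to compound for about 90 hours before reading.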 The experiment is classed as functional. Background: A counterscreen serves to expose hits that act by an unwanted route or on another target.
Experiment [5] can be described thus: off-target signal loss in HeLa-CEM21 co-culture – HeLa F-luc CTL cells, cherry-picked, counter-screen for HIV-1 Env fusion inhibitor project, dose response (AID 652040).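 Further: potency for signal decrease marking cytotoxic or nonspecific inhibition.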 Type of experiment: functional, cell-based.
For experiment [6], the system named is HEK293. Kind of experiment: HEK cell cytotoxicity by LDH release, dose response, cytotoxicity control for IDE activator project, fluorescence, HEK cells (AID 588440).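 Further: cytotoxicity by LDH release measuring loss of membrane integrity.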 Type of experiment: functional, cell-based. The following applies: Homo sapiens. (In general: LDH leaks from cells whose membrane has failed.)
Experiment [7] deals with T2, Insulin-degrading enzyme (Homo sapiens, UniProt P14735).
T2 sequence (P14735 whole entry): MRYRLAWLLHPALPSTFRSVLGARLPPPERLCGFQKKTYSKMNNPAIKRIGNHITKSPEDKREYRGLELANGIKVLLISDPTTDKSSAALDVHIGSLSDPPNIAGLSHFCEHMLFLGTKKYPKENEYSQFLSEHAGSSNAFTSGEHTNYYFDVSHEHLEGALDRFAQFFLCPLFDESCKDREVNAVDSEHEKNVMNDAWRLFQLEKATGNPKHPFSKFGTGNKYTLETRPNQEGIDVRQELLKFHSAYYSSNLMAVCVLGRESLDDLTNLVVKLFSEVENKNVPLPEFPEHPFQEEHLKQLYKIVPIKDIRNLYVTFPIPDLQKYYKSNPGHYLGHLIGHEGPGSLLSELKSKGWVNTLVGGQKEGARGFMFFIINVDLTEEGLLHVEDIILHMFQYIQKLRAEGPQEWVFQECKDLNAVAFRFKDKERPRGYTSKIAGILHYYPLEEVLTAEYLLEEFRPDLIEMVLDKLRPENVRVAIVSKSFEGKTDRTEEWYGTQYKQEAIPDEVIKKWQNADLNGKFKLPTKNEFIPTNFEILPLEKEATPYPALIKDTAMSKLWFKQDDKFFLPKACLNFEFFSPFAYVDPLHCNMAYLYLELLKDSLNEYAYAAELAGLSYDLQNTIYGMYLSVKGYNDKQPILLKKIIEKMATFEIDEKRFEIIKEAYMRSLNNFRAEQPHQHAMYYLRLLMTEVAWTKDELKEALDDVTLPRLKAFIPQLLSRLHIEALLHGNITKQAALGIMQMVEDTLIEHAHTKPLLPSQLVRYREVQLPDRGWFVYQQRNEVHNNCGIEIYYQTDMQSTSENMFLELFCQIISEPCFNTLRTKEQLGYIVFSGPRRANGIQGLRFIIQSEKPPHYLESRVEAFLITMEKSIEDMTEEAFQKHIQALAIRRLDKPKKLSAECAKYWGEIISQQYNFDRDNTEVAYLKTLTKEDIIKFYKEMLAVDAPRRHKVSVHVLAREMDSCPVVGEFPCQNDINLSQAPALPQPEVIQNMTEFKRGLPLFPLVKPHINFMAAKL
Description: activators of endogenous IDE in HEK cells, dose response, cell-based, fluorescence polarization (AID 588439). The experiment is classed as functional.

The nature of experiment [8]: inhibitors of clade B AD8 Env fusion, dose response, cell-based, cherry-pick (AID 652062).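 Further: luciferase signal from cell-cell fusion driven by HIV-1 clade B AD8 Env; potency is for inhibitors of fusion seen as a drop in luminescence.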 The experiment is classed as functional.
Experiment [9] can be described thus: inhibitors of intracellular T. cruzi replication, confirmation, NIH3T3 host cells, beta-gal luminescence (AID 2044).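 Further: intracellular parasites grown in NIH/3T3 mouse fibroblasts as host cells; luminescent beta-galactosidase reporter signal from transgenic T. cruzi replicating inside host cells; inhibitors lower the luminescence signal.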 The experiment is classed as functional, cell-based.
Experiment [10] is described as follows: CEM21 lymphoblast cell cytotoxicity, dose response, cytotoxicity control for viral fusion inhibitor project, CellTiter-Glo luminescence, cherry-picked (AID 652042).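 Further: potency for signal decrease meaning cytotoxicity.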 Type of experiment: functional, cell-based.
A further experiment concerns INS1. Kind of experiment: beta cell apoptosis inhibitors, cytokine rescue, dose response, luminescence, retest (AID 449756).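 Further: cell death triggered by IL-1 beta plus TNF-alpha plus IFN-gamma mixture; protective hits raise ATP signal compared with cytokine alone wells.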 Type of experiment: functional, cell-based. The conditions noted are these: Rattus norvegicus.
Experiment [11] concerns the target T2, Insulin-degrading enzyme. Kind of experiment: activators of recombinant IDE enzyme, dose response, counter-screen for IDE activator project, biochemical, fluorescence polarization (AID 588681).
The target in experiment [12] is Neurotensin receptor type 1 (Homo sapiens, UniProt P30989). Type of experiment: functional.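 Further: Image-based confirmatory dose-response assay measuring agonist activity at NTR1; NTR1-expressing U2OS osteosarcoma cells imaged for beta-arrestin GFP spot formation; agonist potency where compounds increase beta-arrestin recruitment.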
Experiment [13] concerns the target G-protein coupled receptor 55 (Homo sapiens, UniProt Q9Y2T6). Kind of experiment: GPR55 agonists via beta-arrestin recruitment, primary screen, imaging, U2OS cells, beta-arrestin-GFP redistribution (AID 1961). Type of experiment: functional.
Experiment [14] is described as follows: inhibitors of HIV Env-driven cell fusion, dose response, cherry-pick (AID 652057). Type of experiment: functional, cell-based.
Experiment [15] addresses Glucose-6-phosphate 1-dehydrogenase (Homo sapiens, UniProt P11413). Description: human G6PD enzyme inhibitors, dose response, selectivity assay for P. falciparum G6PD inhibitor project, biochemical, fluorescence (AID 504792). Type of experiment: functional.
Another experiment has as its target Beta-galactosidase (Escherichia coli, UniProt Q8VNN2). Kind of experiment: beta-galactosidase enzyme inhibitors and activators, dose response, artefact control for CCR6 antagonist project, biochemical, E. coli enzyme, set 3 (AID 504712). Type of experiment: functional.
For experiment [16], the target named is T3, Voltage-gated N-type calcium channel alpha-1B subunit/Amyloid beta A4 precursor protein-binding family A member 1 (Homo sapiens, UniProt Q00975+Q02410). The experiment is classed as protein assay.
T3 sequence (Q00975 whole entry): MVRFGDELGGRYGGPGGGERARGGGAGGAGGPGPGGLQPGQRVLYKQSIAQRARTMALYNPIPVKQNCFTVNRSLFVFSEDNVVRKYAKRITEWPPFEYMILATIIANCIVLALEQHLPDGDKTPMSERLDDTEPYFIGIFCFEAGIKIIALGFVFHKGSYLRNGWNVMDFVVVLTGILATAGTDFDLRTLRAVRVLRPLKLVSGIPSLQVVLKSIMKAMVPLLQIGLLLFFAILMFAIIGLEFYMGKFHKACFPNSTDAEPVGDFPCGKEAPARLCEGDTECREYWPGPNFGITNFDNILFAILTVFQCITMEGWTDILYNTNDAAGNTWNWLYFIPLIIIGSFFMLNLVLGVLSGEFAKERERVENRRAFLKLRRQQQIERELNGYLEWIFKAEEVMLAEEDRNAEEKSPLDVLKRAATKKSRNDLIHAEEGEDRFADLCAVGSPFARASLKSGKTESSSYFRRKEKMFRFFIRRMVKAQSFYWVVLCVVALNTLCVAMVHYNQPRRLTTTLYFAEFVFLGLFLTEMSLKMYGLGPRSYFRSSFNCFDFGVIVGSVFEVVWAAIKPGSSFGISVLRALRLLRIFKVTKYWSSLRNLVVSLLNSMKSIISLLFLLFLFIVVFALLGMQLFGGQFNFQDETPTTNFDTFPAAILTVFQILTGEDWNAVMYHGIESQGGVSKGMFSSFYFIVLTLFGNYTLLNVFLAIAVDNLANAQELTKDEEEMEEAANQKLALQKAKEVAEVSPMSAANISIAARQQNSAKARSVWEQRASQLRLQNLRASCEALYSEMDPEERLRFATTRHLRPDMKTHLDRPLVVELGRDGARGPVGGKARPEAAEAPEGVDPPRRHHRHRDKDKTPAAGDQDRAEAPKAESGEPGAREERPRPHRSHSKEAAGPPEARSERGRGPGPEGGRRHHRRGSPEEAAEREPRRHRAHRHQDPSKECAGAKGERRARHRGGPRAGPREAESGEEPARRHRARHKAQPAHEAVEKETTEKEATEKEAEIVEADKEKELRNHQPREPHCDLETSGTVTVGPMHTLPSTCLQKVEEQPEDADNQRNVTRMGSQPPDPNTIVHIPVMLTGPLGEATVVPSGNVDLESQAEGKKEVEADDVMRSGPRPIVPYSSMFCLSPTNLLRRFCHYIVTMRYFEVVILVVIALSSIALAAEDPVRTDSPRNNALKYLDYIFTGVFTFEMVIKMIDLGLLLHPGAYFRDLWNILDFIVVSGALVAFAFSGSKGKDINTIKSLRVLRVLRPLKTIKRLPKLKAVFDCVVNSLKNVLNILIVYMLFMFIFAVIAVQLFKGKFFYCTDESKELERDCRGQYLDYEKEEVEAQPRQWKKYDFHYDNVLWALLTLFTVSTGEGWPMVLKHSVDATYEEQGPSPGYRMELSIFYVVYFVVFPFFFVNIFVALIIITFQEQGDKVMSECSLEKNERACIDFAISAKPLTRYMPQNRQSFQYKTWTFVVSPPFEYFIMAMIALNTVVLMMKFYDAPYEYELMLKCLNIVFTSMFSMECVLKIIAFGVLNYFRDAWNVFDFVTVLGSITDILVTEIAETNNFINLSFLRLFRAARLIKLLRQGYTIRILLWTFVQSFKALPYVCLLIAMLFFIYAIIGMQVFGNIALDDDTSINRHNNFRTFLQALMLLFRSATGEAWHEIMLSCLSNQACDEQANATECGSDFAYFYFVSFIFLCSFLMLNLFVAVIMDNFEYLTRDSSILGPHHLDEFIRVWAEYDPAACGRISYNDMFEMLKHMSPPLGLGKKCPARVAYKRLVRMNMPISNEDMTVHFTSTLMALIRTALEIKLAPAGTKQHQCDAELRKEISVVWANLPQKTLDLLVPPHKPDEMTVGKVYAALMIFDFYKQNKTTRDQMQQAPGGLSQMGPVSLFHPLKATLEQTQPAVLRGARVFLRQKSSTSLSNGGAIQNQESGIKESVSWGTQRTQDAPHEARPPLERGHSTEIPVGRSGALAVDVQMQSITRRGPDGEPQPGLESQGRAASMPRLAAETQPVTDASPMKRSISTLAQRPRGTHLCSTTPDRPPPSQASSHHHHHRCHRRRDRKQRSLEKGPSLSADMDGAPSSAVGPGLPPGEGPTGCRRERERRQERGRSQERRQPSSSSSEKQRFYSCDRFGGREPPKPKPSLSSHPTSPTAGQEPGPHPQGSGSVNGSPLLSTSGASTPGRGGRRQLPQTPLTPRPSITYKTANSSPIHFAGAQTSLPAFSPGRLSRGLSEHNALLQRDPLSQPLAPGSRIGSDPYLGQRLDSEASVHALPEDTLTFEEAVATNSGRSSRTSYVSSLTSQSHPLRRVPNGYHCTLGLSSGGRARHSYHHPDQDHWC
T3 sequence (Q02410 whole entry): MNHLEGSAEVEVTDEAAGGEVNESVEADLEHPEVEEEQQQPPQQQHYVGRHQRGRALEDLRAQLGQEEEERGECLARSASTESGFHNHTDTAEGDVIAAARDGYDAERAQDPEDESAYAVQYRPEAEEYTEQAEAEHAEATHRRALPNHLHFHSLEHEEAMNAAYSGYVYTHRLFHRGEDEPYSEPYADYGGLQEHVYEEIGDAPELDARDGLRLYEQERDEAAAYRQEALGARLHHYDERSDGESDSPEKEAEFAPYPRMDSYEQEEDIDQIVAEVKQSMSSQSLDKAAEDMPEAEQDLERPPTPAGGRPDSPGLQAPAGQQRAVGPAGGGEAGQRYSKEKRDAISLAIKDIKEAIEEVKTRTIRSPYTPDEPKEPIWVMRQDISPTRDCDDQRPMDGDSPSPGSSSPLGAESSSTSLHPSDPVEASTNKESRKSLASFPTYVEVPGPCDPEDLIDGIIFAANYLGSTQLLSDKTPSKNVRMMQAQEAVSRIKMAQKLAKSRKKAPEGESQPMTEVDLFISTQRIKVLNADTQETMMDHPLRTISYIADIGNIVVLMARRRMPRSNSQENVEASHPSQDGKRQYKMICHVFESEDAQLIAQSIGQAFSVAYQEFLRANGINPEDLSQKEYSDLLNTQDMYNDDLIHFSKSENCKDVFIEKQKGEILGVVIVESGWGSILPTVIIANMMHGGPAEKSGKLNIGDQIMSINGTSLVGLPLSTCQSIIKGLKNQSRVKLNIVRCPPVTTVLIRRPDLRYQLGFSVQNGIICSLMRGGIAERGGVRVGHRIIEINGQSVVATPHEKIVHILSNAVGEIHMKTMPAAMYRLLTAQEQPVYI
Experiment [17] can be described thus: SV40 cytopathic effect inhibition and cytotoxicity, confirmation, SV40 T antigen inhibitor project, BSC cells (AID 2615). Type of experiment: functional, cell-based.
A short description of experiment [18]: growth suppression of PTEN-null colon cells, dose response, cell-based, HCT116 PTEN knockout (AID 1047).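 Further: HCT116 colon tumor cells with PTEN knocked out; cells exposed to compound for 60 hours before readout; potency for loss of cell viability measured by luminescence.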 Type of experiment: functional.
The target in experiment [19] is T4, Mannose-6-phosphate isomerase (Homo sapiens, UniProt P34949).
T4 sequence (P34949 whole entry): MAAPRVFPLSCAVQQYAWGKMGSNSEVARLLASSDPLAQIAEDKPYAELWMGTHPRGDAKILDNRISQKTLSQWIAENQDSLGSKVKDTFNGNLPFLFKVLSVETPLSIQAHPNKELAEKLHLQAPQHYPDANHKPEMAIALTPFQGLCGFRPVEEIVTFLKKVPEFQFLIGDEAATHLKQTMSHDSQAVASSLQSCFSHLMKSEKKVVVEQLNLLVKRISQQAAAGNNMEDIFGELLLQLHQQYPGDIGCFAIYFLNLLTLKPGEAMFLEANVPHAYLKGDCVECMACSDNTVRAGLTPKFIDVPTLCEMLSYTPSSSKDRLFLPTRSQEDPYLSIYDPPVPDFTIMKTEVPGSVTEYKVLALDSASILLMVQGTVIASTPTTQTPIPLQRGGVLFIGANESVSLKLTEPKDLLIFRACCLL
Kind of experiment: inhibitors of human PMI, primary screen, biochemical, fluorescence intensity, coupled assay (AID 1209).

Experiment [20] is described as follows: Fluorescence-based cell-based high throughput dose response assay for inhibitors of the interaction of nucleotide-binding oligomerization domain containing 2 (NOD2) and the receptor-interacting serine-threonine kinase 2 (RIPK2). Type of experiment: functional. The following applies: Homo sapiens.
A further experiment addresses Large T antigen (Simian virus 40, UniProt P03070). The experiment is classed as functional, Betapolyomavirus macacae.
A short description of experiment [21]: growth suppression of beta-catenin-knockout colon cells, dose response, cell-based, HCT116, human colon tumor (AID 1045).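 Further: HCT116 colon tumor cells with beta catenin knocked out; cells exposed to compound for 60 hours.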 Type of experiment: functional.
In experiment [22] the target is T3, Voltage-gated N-type calcium channel alpha-1B subunit/Amyloid beta A4 precursor protein-binding family A member 1. Type of experiment: protein assay. The source holds these as a separate data set.
In a further experiment the target is T5, Coagulation factor XII (Homo sapiens, UniProt P00748).
T5 sequence (P00748 whole entry): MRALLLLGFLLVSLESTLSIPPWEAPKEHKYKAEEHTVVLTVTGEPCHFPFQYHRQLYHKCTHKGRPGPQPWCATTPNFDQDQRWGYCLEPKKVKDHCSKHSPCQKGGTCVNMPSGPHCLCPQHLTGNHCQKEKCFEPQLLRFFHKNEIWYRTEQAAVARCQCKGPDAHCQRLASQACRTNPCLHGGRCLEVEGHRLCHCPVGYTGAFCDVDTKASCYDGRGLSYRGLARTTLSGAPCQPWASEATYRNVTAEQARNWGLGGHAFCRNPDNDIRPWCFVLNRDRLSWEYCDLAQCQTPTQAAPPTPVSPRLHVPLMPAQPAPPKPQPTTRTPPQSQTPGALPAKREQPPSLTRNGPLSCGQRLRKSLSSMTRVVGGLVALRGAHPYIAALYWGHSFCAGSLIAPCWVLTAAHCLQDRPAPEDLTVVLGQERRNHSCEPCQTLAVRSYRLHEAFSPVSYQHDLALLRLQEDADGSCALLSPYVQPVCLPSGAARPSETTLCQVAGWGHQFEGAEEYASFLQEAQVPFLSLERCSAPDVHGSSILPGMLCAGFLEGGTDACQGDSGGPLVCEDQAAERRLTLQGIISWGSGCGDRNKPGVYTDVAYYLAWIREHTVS
Description: FXIIa inhibitor potency, concentration-response, biochemical (AID 716). Type of experiment: functional.

The target in experiment [23] is T6, Kappa-type opioid receptor (Homo sapiens, UniProt P41145). Kind of experiment: SAR analysis of Antagonists of the Kappa Opioid Receptor (KOR) using an Image-Based Assay - Set 2. [Related pubchem assays (depositor defined):AID1777, AID1785, AID1786, AID1966, AID2133, AID2136, AID2284, AID2285, AID2348]. The experiment is classed as functional.
T6 sequence (P41145 whole entry): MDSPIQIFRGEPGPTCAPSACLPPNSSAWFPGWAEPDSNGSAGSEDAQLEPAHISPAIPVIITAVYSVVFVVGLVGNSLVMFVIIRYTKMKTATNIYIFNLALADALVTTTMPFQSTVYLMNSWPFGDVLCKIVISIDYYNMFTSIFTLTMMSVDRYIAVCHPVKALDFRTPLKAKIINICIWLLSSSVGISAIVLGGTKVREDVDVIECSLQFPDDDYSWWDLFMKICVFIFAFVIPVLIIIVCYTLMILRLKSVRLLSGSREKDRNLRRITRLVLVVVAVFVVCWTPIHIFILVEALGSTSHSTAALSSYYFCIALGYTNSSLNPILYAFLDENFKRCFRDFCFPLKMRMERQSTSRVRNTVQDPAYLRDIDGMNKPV
For experiment [24], the target named is T6, Kappa-type opioid receptor. Kind of experiment: SAR analysis of small molecule agonists of the kappa opioid receptor via a luminescent beta-arrestin assay - Set 2. [Related pubchem assays (depositor defined):AID1777, AID1785, AID1786, AID1966, AID2133, AID2136, AID2284, AID449737]. The experiment is classed as functional.
Experiment [25] concerns the target Delta-type opioid receptor (Homo sapiens, UniProt P41143). Kind of experiment: SAR Analysis of Antagonists of the DOR Receptor using an Image-Based Assay - Set 2. [Related pubchem assays (depositor defined):AID1777, AID1785, AID1786, AID1966, AID2133, AID2136, AID2284, AID2285, AID2357]. Type of experiment: functional.

Chain of Large T antigen (P03070 whole entry): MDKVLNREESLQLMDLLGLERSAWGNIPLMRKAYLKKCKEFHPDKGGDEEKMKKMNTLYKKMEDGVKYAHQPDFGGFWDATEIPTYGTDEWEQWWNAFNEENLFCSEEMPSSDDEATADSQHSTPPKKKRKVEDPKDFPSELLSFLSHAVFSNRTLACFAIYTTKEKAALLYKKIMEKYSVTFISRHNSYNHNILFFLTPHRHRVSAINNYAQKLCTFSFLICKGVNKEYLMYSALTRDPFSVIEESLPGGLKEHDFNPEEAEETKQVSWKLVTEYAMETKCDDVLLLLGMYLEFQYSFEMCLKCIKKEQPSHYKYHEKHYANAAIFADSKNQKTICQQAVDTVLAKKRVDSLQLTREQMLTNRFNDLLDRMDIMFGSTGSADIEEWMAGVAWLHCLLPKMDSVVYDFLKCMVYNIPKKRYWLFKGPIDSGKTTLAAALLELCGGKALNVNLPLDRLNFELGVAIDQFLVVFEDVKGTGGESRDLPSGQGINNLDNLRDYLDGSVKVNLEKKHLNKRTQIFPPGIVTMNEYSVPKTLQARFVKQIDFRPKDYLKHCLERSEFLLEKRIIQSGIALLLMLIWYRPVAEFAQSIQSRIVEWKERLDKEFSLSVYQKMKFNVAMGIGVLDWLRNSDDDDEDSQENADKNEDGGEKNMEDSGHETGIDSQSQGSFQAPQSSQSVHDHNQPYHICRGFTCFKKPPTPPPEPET
Chain of Delta-type opioid receptor (P41143 whole entry): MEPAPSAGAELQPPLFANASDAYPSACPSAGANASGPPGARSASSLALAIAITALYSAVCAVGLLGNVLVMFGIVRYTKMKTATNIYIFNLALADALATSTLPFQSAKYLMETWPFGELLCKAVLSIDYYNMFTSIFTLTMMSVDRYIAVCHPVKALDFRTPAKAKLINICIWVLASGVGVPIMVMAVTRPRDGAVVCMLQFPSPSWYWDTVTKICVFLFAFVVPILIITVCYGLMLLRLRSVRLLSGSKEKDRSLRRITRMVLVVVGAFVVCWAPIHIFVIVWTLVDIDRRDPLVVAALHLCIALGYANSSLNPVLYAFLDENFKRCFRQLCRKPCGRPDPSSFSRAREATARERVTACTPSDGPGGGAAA
Chain of G-protein coupled receptor 55 (Q9Y2T6 whole entry, the tested form may be a part): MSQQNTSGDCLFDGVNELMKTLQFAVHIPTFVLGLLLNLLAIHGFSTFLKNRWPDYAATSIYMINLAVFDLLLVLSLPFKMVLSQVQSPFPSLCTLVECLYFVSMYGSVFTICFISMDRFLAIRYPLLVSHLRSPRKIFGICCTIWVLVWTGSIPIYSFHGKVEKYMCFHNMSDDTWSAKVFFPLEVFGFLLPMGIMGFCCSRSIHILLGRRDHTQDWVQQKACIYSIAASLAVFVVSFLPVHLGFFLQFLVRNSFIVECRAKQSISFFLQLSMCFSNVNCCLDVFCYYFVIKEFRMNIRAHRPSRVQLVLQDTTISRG

Regarding `Cc1ccc(NC(=O)c2sc(=S)n(-c3cc(C)ccc3F)c2N)cc1`, the IC50 in [1] is 87.1 µM (active).
`CC1CCC(C(C)C)C(OC(=O)Cn2c(COc3ccccc3)[n+](C)c3ccccc32)C1` (centres undefined): the EC50 is > 54.7 µM (inactive) in the experiment with HEK293 [2]; > 60 µM (not active) in [4]; > 54.7 µM (inactive) at Insulin-degrading enzyme [7]; 0.588 µM (active) in experiment [9]; > 54.7 µM (inactive) at Insulin-degrading enzyme [11]; 14 µM (active) in [12]. The EC50 in experiment [13] is > 32 µM (inactive). Moreover, the AC50 in experiment [3] is 6.35 µM (active); in experiment [5] it was 6.69 µM (active); in experiment [8], 8.6 µM (active); in [10] it was 6.94 µM (active); in the experiment with INS1, 6.26 µM (active); in [14] it was 3.26 µM (active). For the same compound, the IC50 in the experiment on HEK293 [6] is 17.4 µM (inactive).
With `ClC(Cl)(c1nnnn1-c1ccccc1)c1nnnn1-c1ccccc1`, the IC50 in experiment [15] is > 80 µM (inactive); at Beta-galactosidase, > 66.6 µM (inactive); in [16], 5.93 µM (active); in experiment [17] it was 10 µM (active); in [19], > 50 µM (not active); in experiment [20] it was 5.41 µM (active). For the same compound, the IC50 is 5.47 µM (active) on Large T antigen and 4.38 µM (active) in experiment [22]. For the same compound, the results for the EC50 in experiment [18] and in experiment [21] were 10.8 µM (active) and 9.79 µM (active), respectively.
Consider `COc1ccc(NC(=O)CSc2nnc(CNC(=O)COc3ccc(Cl)cc3)o2)c(OC)c1`, for which the IC50 on Coagulation factor XII is > 50 µM (inactive).
On to `CC[C@@](C)(C(=O)Nc1ccc(Br)cc1)N(Cc1ccco1)C(=O)c1ccccn1`, for which the IC50 in [23] and in experiment [25] was > 32 µM (inactive) in each case. Further, the concentration giving a half-maximal response (EC50) in [24] was 0.0523 µM (active).
